This passage reports first-phase pharmacokinetic half-life and EC50 results from US20260265208A1, “TETRALINE, PHENYLCYCLOBUTANE AND PHENYLCYCLOPENTANE ANALOGS AS RXFP1 AGONISTS” (BRISTOL-MYERS SQUIBB COMPANY, priority 2021, published 2026).

System in the first series: not given
Assay: not given
The following applies: intravenous (IV) formulation; cited from earlier work.
In the case of Serelaxin, the first-phase pharmacokinetic half-life is 5.4 min.

In the next series the target is T1, human RXFP1 (Homo sapiens, UniProt Q9HBX9).
T1 construct: expressed in transfected cells
T1 sequence (Q9HBX9 1-757): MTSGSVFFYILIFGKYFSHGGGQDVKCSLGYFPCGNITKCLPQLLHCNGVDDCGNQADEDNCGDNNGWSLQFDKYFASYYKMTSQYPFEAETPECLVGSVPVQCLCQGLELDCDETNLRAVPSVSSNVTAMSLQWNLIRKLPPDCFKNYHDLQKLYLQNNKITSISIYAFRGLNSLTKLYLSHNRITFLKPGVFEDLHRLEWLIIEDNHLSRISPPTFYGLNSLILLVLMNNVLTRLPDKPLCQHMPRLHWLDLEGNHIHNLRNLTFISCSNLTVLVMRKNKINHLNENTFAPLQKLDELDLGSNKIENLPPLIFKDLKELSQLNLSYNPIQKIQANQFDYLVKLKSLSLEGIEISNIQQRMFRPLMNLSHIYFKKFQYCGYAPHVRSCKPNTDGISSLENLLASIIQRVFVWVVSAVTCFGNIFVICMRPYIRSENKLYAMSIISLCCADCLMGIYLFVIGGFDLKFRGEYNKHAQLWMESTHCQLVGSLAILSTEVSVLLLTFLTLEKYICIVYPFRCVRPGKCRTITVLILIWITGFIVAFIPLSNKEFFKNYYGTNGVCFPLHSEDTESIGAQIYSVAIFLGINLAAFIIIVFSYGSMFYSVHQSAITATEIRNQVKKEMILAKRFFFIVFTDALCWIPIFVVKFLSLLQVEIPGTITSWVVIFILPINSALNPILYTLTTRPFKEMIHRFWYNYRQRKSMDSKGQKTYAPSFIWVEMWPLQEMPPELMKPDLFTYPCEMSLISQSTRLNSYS
Briefly: hRXFP1 HEK293 cAMP assay (HTRF). The series is classed as cell-based. The following applies: HEK293 cells stably expressing human RXFP1; phenylcyclobutane examples. As to the method:
RXFP1 Cyclic Adenosine Monophosphate (cAMP) Assays. Human embryonic kidney cells 293 (HEK293) cells and HEK293 cells stably expressing human RXFP1, were cultured in MEM medium supplemented with 10% qualified FBS, and 300 μg/ml hygromycin (Life Technologies). Cells were dissociated and suspended in assay buffer. The assay buffer was HBSS buffer (with calcium and magnesium) containing 20 mM HEPES, 0.05% BSA, and 0.5 mM IBMX. Cells (3000 cells per well, except 1500 cell per well for HEK293 cells stably expressing human RXFP1) were added to 384-well Proxiplates (Perkin-Elmer). Cells were immediately treated with test compounds in DMSO (2% final) at final concentrations in the range of 0.010 nM to 50 μM. Cells were incubated for 30 min at room temperature. The level of intracellular cAMP was determined using the HTRF HiRange cAMP assay reagent kit (Cisbio) according to manufacturer's instructions. Solutions of cryptate conjugated anti-cAMP and d2 fluorophore-labelled cAMP were made in a supplied lysis buffer separately. Upon completion of the reaction, the cells were lysed with equal volume of the d2-cAMP solution and anti-cAMP solution. After a 1 h room temperature incubation, time-resolved fluorescence intensity was measured using the Envision (Perkin-Elmer) at 400 nm excitation and dual emission at 590 nm and 665 nm. A calibration curve was constructed with an external cAMP standard at concentrations ranging from 2.7 μM to 0.1 μM by plotting the fluorescent intensity ratio from 665 nm emission to the intensity from the 590 nm emission against cAMP concentrations. The potency and activity of a compound to […] cAMP production was then determined by fitting to a 4-parametric logistic equation from a plot of cAMP level versus compound concentrations.
The examples disclosed below were tested in the human RXFP1 (hRXFP1) HEK293 cAMP assay described above and found to have agonist activity. Tables 1-3, lists EC50 values in the hRXFP1 HEK293 cAMP assay measured for the examples.
As usually defined, the EC50 is the concentration giving half of the maximal effect. For `COc1ccc(-c2cc(C(=O)O)ccc2F)cc1C(=O)Nc1cc2c(cc1C(=O)Nc1ccc(F)c(C(F)(F)F)c1)CC2` [Example 21], the EC50 was 2400 nM. Consider `COc1ccc(-c2cc(C(NC(=O)C3CCOCC3)C(=O)O)ccc2F)cc1C(=O)Nc1cc2c(cc1C(=O)Nc1ccc(F)c(C(F)(F)F)c1)CC2` (stereo not drawn) [Example 22, 2-(6-fluoro-3′-((4-((4-fluoro-3-(trifluoromethyl)phenyl)carbamoyl)bicyclo[4.2.0]octa-1,3,5-trien-3-yl)carbamoyl)-4′-methoxy-[1,1′-biphenyl]-3-yl)-2-(tetrahydro-2H-pyran-4-carboxamido)acetic acid], for which the concentration for a half-maximal effect (EC50) was found to be 8 nM.

In the case of `COc1ccc(-c2cc(C(O)C(=O)O)ccc2F)cc1C(=O)Nc1cc2c(cc1C(=O)Nc1ccc(F)c(C(F)(F)F)c1)CC2` (stereo not drawn) [Example 23, 2-(6-fluoro-3′-((4-((4-fluoro-3-(trifluoromethyl)phenyl)carbamoyl)bicyclo[4.2.0]octa-1,3,5-trien-3-yl)carbamoyl)-4′-methoxy-[1,1′-biphenyl]-3-yl)-2-hydroxyacetic acid], the EC50 stood at 660 nM.

The same series, now with this note: HEK293 cells stably expressing human RXFP1; phenylcyclohexyl (tetraline) examples.
As to `COc1ccc(-c2noc(CCO)c2CCO)cc1C(=O)Nc1cc2c(cc1C(=O)Nc1ccc(F)c(C(F)(F)F)c1)CCCC2` [Example 16, 3-(5-(4,5-bis(2-hydroxyethyl)isoxazol-3-yl)-2-methoxybenzamido)-N-(4-fluoro-3-(trifluoromethyl)phenyl)-5,6,7,8-tetrahydronaphthalene-2-carboxamide], the EC50 was 5000 nM. On to `COc1ccc(-c2cc([C@H](OC(=O)NC3CCC3)C(F)(F)F)ccc2F)cc1C(=O)Nc1cc2c(cc1C(=O)Nc1ccc(F)c(C(F)(F)F)c1)CCCC2=O` [Example 17, (S)-2,2,2-trifluoro-1-(6-fluoro-3′-((3-(4-fluoro-3-(trifluoromethyl)phenyl)carbamoyl)-8-oxo-5,6,7,8-tetrahydronaphthalen-2-yl)carbamoyl)-4′-methoxy-[1,1′-biphenyl]-3-yl)ethyl cyclobutylcarbamate], for which the EC50 came out at 22 nM. Still for that read-out and setting: with `COc1ccc(-c2cc(C(=O)O)ccc2F)cc1C(=O)Nc1cc2c(cc1C(=O)Nc1ccc(F)c(C(F)(F)F)c1)CCCC2=O` [Example 18, 6-fluoro-3′-((3-((4-fluoro-3-(trifluoromethyl)phenyl)carbamoyl)-8-oxo-5,6,7,8-tetrahydronaphthalen-2-yl)carbamoyl)-4′-methoxy-[1,1′-biphenyl]-3-carboxylic acid] the figure was 1100 nM. The same measure, in the same setting: with `COc1ccc(-c2cnn(CC(=O)O)c2)cc1C(=O)Nc1cc2c(cc1C(=O)Nc1ccc(F)c(C(F)(F)F)c1)CCCC2` [Example 19, 2-(4-(3-((3-((4-fluoro-3-(trifluoromethyl)phenyl)carbamoyl)-5,6,7,8-tetrahydronaphthalen-2-yl)carbamoyl)-4-methoxyphenyl)-1H-pyrazol-1-yl)acetic acid] the figure was 1300 nM.

For the molecule `COc1ccc(N2CCCS2(=O)=O)cc1C(=O)Nc1cc2c(cc1C(=O)Nc1ccc(F)c(C(F)(F)F)c1)CCCC2` [Example 20, 3-(5-(1,1-dioxidoisothiazolidin-2-yl)-2-methoxybenzamido)-N-(4-fluoro-3-(trifluoromethyl)-phenyl)-5,6,7,8-tetrahydronaphthalene-2-carboxamide], the EC50 is 2200 nM. Against the preceding molecule, the EC50 is about 1.7-fold higher.

The same series, now with this note: HEK293 cells stably expressing human RXFP1; phenylcyclopentyl examples.
As to `COc1ccc(-c2cc(C(=O)O)ccc2F)cc1C(=O)Nc1cc2c(cc1C(=O)Nc1ccc(F)c(C(F)(F)F)c1)CCC2` [Example 24, 6-fluoro-3′-((6-((4-fluoro-3-(trifluoromethyl)phenyl)carbamoyl)-2,3-dihydro-1H-inden-5-yl)carbamoyl)-4′-methoxy-[1,1′-biphenyl]-3-carboxylic acid], a half-maximal effect (EC50) was put at 3440 nM. Same read-out and setting: with `COc1ccc(-c2cc(C(NC(=O)C3CCOCC3)C(=O)O)ccc2F)cc1C(=O)Nc1cc2c(cc1C(=O)Nc1ccc(F)c(C(F)(F)F)c1)CCC2` (stereo not drawn) [Example 25, 2-(6-fluoro-3′-((6-((4-fluoro-3-(trifluoromethyl)phenyl)carbamoyl)-2,3-dihydro-1H-inden-5-yl)carbamoyl)-4′-methoxy-[1,1′-biphenyl]-3-yl)-2-(tetrahydro-2H-pyran-4-carboxamido)acetic acid] the figure was 11 nM; with `COc1ccc(-c2cc(C(=O)O)ccc2F)cc1C(=O)Nc1cc2c(cc1C(=O)Nc1ccc(F)c(C(F)(F)F)c1)CCC2=O` [Example 26, 6-fluoro-3′-((6-((4-fluoro-3-(trifluoromethyl)phenyl)carbamoyl)-3-oxo-2,3-dihydro-1H-inden-5-yl)carbamoyl)-4′-methoxy-[1,1′-biphenyl]-3-carboxylic acid], 230 nM.
